Results reported in patent publication US20080033010A1, “Combination therapy of erdosteine and beta-2 agonists for treating respiratory pathologies characterized by non reversible or partially reversible airway obstruction” (EDMOND PHARMA s.r.l., priority 2006, published 2008).

System: newly diagnosed COPD subjects
Test: Test of bronchial reversibility with salbutamol (spirometry, FEV1) before and after 4 and 10 days of erdosteine therapy, double-blind against placebo
Format: in vivo, humans
Description: This effect has been found in a trial utilizing the test of bronchial reversibility with salbutamol before and after 4 and 10 days of therapy with erdosteine at the dose of 900 mg/day, that is the maximum dosage presently approved in humans. The standard protocol has been used: spirometry was performed before and 15-20 minutes after the administration of […] of salbutamol with a metered inhaler. For reducing the bias, the study was double-blind against placebo and the patients selected were newly diagnosed COPD subjects never treated with −2 agonists. 7 patients were treated with erdosteine and 7 with placebo in a random order. At baseline, all the patients had only a partial reversibility (mean 2.5%) of bronchial obstruction calculated with the FEV1 (the absolute values were 1.5 liters before salbutamol and 1.537 liters after salbutamol), thus fully meeting the COPD definition. When the test was repeated at Day 4 of therapy, the reversibility of bronchial obstruction in the placebo group was not different from the baseline values (mean increase of FEV1: 0.9%), while in the erdosteine group there was a significant and unexpected increase of post-salbutamol FEV1 values in all the patients (mean increase of FEV1: 7.1%).

[1] = baseline, all the patients, before therapy
[2] = Patient #1, after 4 days of erdosteine therapy
[3] = Patient #1, after 10 days of erdosteine therapy
[4] = Patient #4, after 4 days of erdosteine therapy
[5] = Patient #4, after 10 days of erdosteine therapy
[6] = Patient #4, before therapy (baseline)

With `CC(C)(C)NCC(O)c1ccc(O)c(CO)c1` (centres unmarked) [salbutamol] the “partial reversibility of bronchial obstruction calculated with the FEV1 (mean)” value (baseline, all the patients, before erdosteine or placebo therapy, salbutamol alone) was 2.5%, the “FEV1 absolute value after salbutamol” value [1] was 1.537 L and the “FEV1 absolute value before salbutamol” value [1] was 1.5 L.

In the case of `O=C(O)CSCC(=O)NC1CCSC1=O` (centres unmarked) [erdosteine], the FEV1 post salbutamol [2] was 2.05, the FEV1 pre salbutamol [2] was 1.85 and the “increase of FEV1 post vs pre salbutamol” value [2] was “+10.8%”. For the same compound, the FEV1 post salbutamol [3] was 2.13, the FEV1 pre-salbutamol [3] was 1.93 and the “increase of FEV1 post vs pre salbutamol” value [3] was “+9.4%”. The FEV1 post salbutamol (Patient #1, before therapy (baseline)) was 1.81, the FEV1 pre-salbutamol (Patient #1, before therapy (baseline) (entry two)) was 1.81 and the FEV1 pre-salbutamol (Patient #4 (person one), before therapy (baseline)) was 1.19. For the same compound, the FEV1 post salbutamol [4] was 1.96, the FEV1 pre salbutamol [4] was 1.74 and the “increase of FEV1 post vs pre salbutamol” value [4] was “+12.6%”. For the same compound, the FEV1 post salbutamol [5] was 1.92, the FEV1 pre-salbutamol [5] was 1.69 and the “increase of FEV1 post vs pre salbutamol” value [5] was “+13%”. The FEV1 post salbutamol [6] was 1.26, the “increase of FEV1 post vs pre salbutamol” value [6] was “+5.9%” and the “reversal of the bronchial obstruction” value (erdosteine administered with beta agonists vs beta agonist alone) was “much more evident than that obtained with the beta agonist alone”. The “mean increase of FEV1 (reversibility of bronchial obstruction, post-salbutamol)” value (erdosteine group (7 patients), Day 4 of therapy, erdosteine 900 mg/day, spirometry 15-20 minutes after salbutamol) was 7.1% and the “mean increase of FEV1 (reversibility of bronchial obstruction, post-salbutamol)” value (erdosteine group, final control at Day 10, erdosteine 900 mg/day) was 10.3%.
